{"source": "patent US20250134870A1", "about": "“PATHWAY MODULATOR, PHARMACEUTICAL COMPOSITION HAVING SAME, USE THEREOF, AND THERAPEUTIC METHOD USING SAME” (Jiangsu Yahong Meditech Co., Ltd., priority 2021, published 2025)", "key": {"[1]": {"system": "norepinephrine level", "details": "cited from earlier work"}, "[2]": {"system": "mesenteric lymph node immune cell subpopulations", "assay": "Flow cytometry of immune cell subpopulations and cytokines in mesenteric lymph nodes of DSS colitis mice (Examples 2, 4)", "type": "in vivo, C57BL/6J mice", "details": "100 mg/kg PO QD × 8 days (Test group 7#) vs solvent group", "experimental": "The experimental endpoint was 24 hours after administration on Day 8 for the positive drug control group and the Test group 1 #to Test group 7 #of Example 1; the experimental endpoint of the normal group and the solvent group was the same as that of the positive drug control group and Test group 1 #to Test group 7 #.\nAt the experimental endpoint, mesenteric lymphatic nodes were collected and treated as follows:\n1) The mesenteric lymph nodes were gently grinded and filtered with a […] strainer (BD bioscience, Catalog No. 352350) to obtain a cell suspension, and the cells were counted.\n2) The cells were suspended in a suspension solution (the suspension solution was prepared by the following process: diluting the cell activation mixture with a mixture of 90 v % 1640 medium and 10 v % fetal bovine serum to a concentration of 1×), the cell density was adjusted to 2.5×10^7/mL, and the cells were incubated at 37° C. for 5 hours. 3) The cells were washed with Dulbecco's Phosphate Buffered Saline, and stained with viable/dead stain (stain No. 12 in Table 5) at room temperature for 15 min to distinguish between viable cells and dead cells; the cells were washed with staining buffer (prepared by mixing fetal bovine serum and Dulbecco's Phosphate Buffered Saline at a volume ratio of 2:98), Fc block working solution (prepared by mixing Fc block and staining buffer at a volume ratio of 1:200) was added, and the cells were incubated at room temperature for 15 minutes.\n4) The cells were surface labeled with 100 μL of antibody staining solution for flow cytometry without washing and incubated at 4° C. for 30 minutes.\n5) The cells were washed once with staining buffer, 100 μL of cell fixative solution was added, and the cells were incubated at 4° C. overnight.\n6) 200 μL of cell permeabilization solution was added and incubated at 4° C. for 30 minutes.\n7) After washing with 250 μL of cell permeabilization solution, the cells were suspended with 100 μL of staining buffer and fluorescence was detected with a BD LSRFortessa instrument.\n8) The cell subpopulations analyzed by flow cytometry included CD4+ T cell subpopulation, IL-17A+CD4+ T cell subpopulation, IFN-γ+CD4+ T cell subpopulation, TNF-α+CD4+ T cell subpopulation, CD25+FOXP3+ Treg cell subpopulation; CD8+ T cell subpopulation, IL-17A+CD8+ T cell subpopulation, IFN-γ+CD8+ T cell subpopulation, TNF-α+CD8+ T cell subpopulation; CD69+B220+ B cell subpopulation and NK1.1+CD107a+ NK cell subpopulation."}, "[3]": {"system": "dextran sulfate sodium (DSS)-induced colitis", "assay": "DSS-induced colitis in mice: body weight, DAI score, colon density (Examples 1, 3)", "type": "in vivo, C57BL/6J mice", "details": "for Colon density: experimental endpoint", "experimental": "8-10 week old female C57BL/6J mice purchased from Charles River Laboratories were used. The mice were housed in a room at constant temperature (20+2° C.) (5 mice per cage) with a 12-hour light-dark cycle. All protocols were approved by the Institutional Animal Care and Use Committee of WuXi AppTec. These mice were adapted to the housing conditions at the animal experiment center of WuXi AppTec for at least three days prior to the experiment. […] At the experimental endpoint (see hereinafter), mice were euthanized and endpoint samples were obtained. Mice in the normal group were not given 3% DSS aqueous solution to induce colitis and were free to drink blank water. […] The animal body weight and DAI score were assessed under double-blind conditions, that is, the researchers collected the body weight data of mice and observed and scored the stool characteristics and blood stools every day, without knowing the group and dosing regimen. The DAI score was the sum of the weight loss score, stool score and bleeding score. […] The data were analyzed by analysis of variance, specifically by using the following process: using Graph Pad Prism 6.0 software to carry out post-hoc Dunnett's multiple comparison test. […] Data were expressed as mean±S.E.M. The experimental endpoint was 24 hours after administration on Day 8 for the positive drug control group and the Test group 1 #to Test group 7 #of Example 1; the experimental endpoint of the normal group and the solvent group was the same as that of the positive drug control group and Test group 1 #to Test group 7 #."}, "[4]": {"details": "1200 mg; 10 consecutive days; NCT02151994; cited from earlier work"}, "[5]": {"system": "2,4-dinitrobenzenesulfonic acid (DNBS)-induced colitis", "assay": "DNBS-induced colitis in rats: pathological score of colon tissue (H&E)", "type": "in vivo, Wistar rats", "excerpt": "The proximal, ulcer (corresponding sites can be taken, if there was no ulcer) and distal parts of the colon tissue fixed by neutral buffered formalin were embedded with paraffin, sectioned (thickness 5 μm), and histopathological score was given by H&E staining."}, "[6]": {"system": "2,4-dinitrobenzenesulfonic acid (DNBS)-induced colitis", "assay": "DNBS-induced colitis in rats: macroscopic evaluation of colon on Day 7 (colon length, weight, ulcer area, CW/CL, CW/BW, CW/CL/BW)", "type": "in vivo, Wistar rats", "details": "for inhibition at 9 mg/kg: Rattus norvegicus, 168 h", "experimental": "(3) Colon observation: after the end of the experiment, all animals were anesthetized with Zoletil (intravenous injection, 25 mg/kg) and the abdominal cavity was opened. Blood was collected from the abdominal aorta with EDTA anticoagulation (centrifugation conditions: 4° C., 2,000 g, 10 min). After the animals were sacrificed by bloodletting, the colon (from the cecum to the anus) was dissected and the colon length was measured immediately. The colon was longitudinally incised and rinsed until clean. Then the colon weight and ulcer area were recorded, and the colon was photographed as a whole and divided into three parts, among which two parts were stored at −80° C. after flash freezing with liquid nitrogen for MPO and cytokine detection, and the other part of colon was fixed with 10% neutral buffered formalin. If the ulcer was irregularly shaped, it could be considered as rectangular, and then its length and width were measured for ulcer area assessment. Ulcer area (cm^2)=ulcer length (cm)×ulcer width (cm)."}, "[7]": {"system": "2,4-dinitrobenzenesulfonic acid (DNBS)-induced colitis", "assay": "DNBS-induced enteritis/colitis in rats: body weight and stool score (Example 10)", "type": "in vivo, Wistar rats", "details": "positive control drug", "experimental": "The 90 animals were randomly grouped on Day-1 (i.e., the day before the experiment) based on animal body weight to ensure that the body weight of each group of animals were similar, so as to reduce bias. Rats were fasted for 40 hours before the experiment and were injected subcutaneously with 5% glucose saline (10 mL/kg, once daily) during fasting. • Experimental grouping:\nOn Day 1 of the experiment, fasting rats were anesthetized by intraperitoneal injection with Zoletil (25 mg/kg Tiletamine and 25 mg/kg Zolazepam) and 5 mg/kg Xylazine.\nIn groups G2-G6, a hose was inserted from the anus to left colic flexure (about 8 cm from the anus) and colitis was induced by DNBS enema (0.5 mL/animal) in rats. The normal control group (G1) received 30% ethanol enema by the same process. The head of the animal after enema was lowered for 15 min, and then the animal was kept in Trendelenburg position until waked to avoid backflow of the enema fluid.\nThe percentage of body weight was calculated according to the following formula: (body weight on Day X-initial weight)/initial weight]×100%.\n(2) Stool score: during the experiment, the stool state of rats was scored daily (0=normal, 1=wet/sticky, 2=loose, 3=liquid)."}, "[8]": {"details": "rats with spontaneous hypertension"}}, "note": "Like-named read-outs stand apart in the source and are kept apart here."}
{"smiles": "Fc1cc(F)c2c(c1)C[C@@H](n1c(CCNCc3ccccc3)c[nH]c1=S)CO2", "note": "[Zamicastat]", "values": [{"measurement": "brain-blood-barrier penetration", "setting": "[1]; compared with Nepicastat", "result": "lower levels of brain-blood-barrier penetration"}, {"measurement": "effect on brain tissue (norepinephrine level)", "setting": "[1]; [8]", "result": "no effect on brain tissue"}, {"measurement": "norepinephrine level in peripheral sympathetic innervation tissues", "setting": "[1]; [8]", "result": "reduce the norepinephrine level in peripheral sympathetic innervation tissues"}, {"measurement": "proportion of CD4+ T cell subpopulation", "setting": "[2]", "result": "reduce the proportion"}, {"measurement": "proportion of CD25+FOXP3+ Treg cell subpopulation", "setting": "[2]", "result": "increase the proportion"}, {"measurement": "secretion of IFN-γ by CD4+ T cell subpopulation", "setting": "[2]", "result": "reduce the secretion"}, {"measurement": "secretion of IL-17A by CD4+ T cell subpopulation", "setting": "[2]", "result": "reduce the secretion"}, {"measurement": "secretion of TNF-α by CD4+ T cell subpopulation", "setting": "[2]", "result": "reduce the secretion"}, {"measurement": "Body weight on Day 7, g", "setting": "[3]; 10 mg/kg PO QD × 8 days", "result": 19.26, "unit": "g"}, {"measurement": "Body weight on Day 7/initial body weight, %", "setting": "[3]; 10 mg/kg PO QD × 8 days", "result": 91.68, "unit": "%"}, {"measurement": "Body weight on Day 8, g", "setting": "[3]; 10 mg/kg PO QD × 8 days", "result": 18.37, "unit": "g"}, {"measurement": "Body weight on Day 8/initial body weight, %", "setting": "[3]; 10 mg/kg PO QD × 8 days", "result": 87.45, "unit": "%"}, {"measurement": "DAI score on Day 8", "setting": "[3]; 10 mg/kg PO QD × 8 days", "result": 6.30}, {"measurement": "Body weight on Day 7, g", "setting": "[3]; 30 mg/kg PO QD × 8 days", "result": 18.96, "unit": "g"}, {"measurement": "Body weight on Day 7/initial body weight, %", "setting": "[3]; 30 mg/kg PO QD × 8 days", "result": 91.04, "unit": "%"}, {"measurement": "Body weight on Day 8, g", "setting": "[3]; 30 mg/kg PO QD × 8 days", "result": 17.78, "unit": "g"}, {"measurement": "Body weight on Day 8/initial body weight, %", "setting": "[3]; 30 mg/kg PO QD × 8 days", "result": 85.35, "unit": "%"}, {"measurement": "DAI score on Day 8", "setting": "[3]; 30 mg/kg PO QD × 8 days", "result": 6.30}, {"measurement": "Body weight on Day 7, g", "setting": "[3]; 100 mg/kg PO QD × 8 days", "result": 19.66, "unit": "g"}, {"measurement": "Body weight on Day 8, g", "setting": "[3]; 100 mg/kg PO QD × 8 days", "result": 18.75, "unit": "g"}, {"measurement": "Body weight on Day 8/initial body weight, %", "setting": "[3]; 100 mg/kg PO QD × 8 days", "result": 89.17, "unit": "%"}, {"measurement": "DAI score on Day 8", "setting": "[3]; 100 mg/kg PO QD × 8 days", "result": 5.20}, {"measurement": "severity of DSS-induced colitis and disease activity", "setting": "[3]; Nepicastat 30, Etamicastat 100, Zamicastat 100 mg/kg PO QD × 8 days (Test groups 1#, 4#, 7#) vs solvent group", "result": "ameliorated the severity of DSS-induced colitis and reduced disease activity"}, {"measurement": "Colon density", "setting": "[3]; 10 mg/kg PO QD × 8 days", "result": 35.04, "unit": "mg/cm"}, {"measurement": "Colon density", "setting": "[3]; 30 mg/kg PO QD × 8 days", "result": 36.37, "unit": "mg/cm"}, {"measurement": "safety", "setting": "[4]", "result": "relatively good safety"}]}
{"smiles": "C[C@]12C=CC(=O)C=C1CC[C@@H]1[C@@H]2C(=O)C[C@@]2(C)[C@H]1CC[C@]2(O)C(=O)CO", "note": "[Prednisone]", "values": [{"measurement": "Pathological score, Distal end, Damage", "setting": "[5]; mean, G3, 9 mg/kg PO QD × 7", "result": 1.33}, {"measurement": "Pathological score, Distal end, Inflammation", "setting": "[5]; mean, G3, 9 mg/kg PO QD × 7", "result": 2.00}, {"measurement": "Pathological score, Proximal end, Damage", "setting": "[5]; mean, G3, 9 mg/kg PO QD × 7", "result": 0.80}, {"measurement": "Pathological score, Proximal end, Inflammation", "setting": "[5]; mean, G3, 9 mg/kg PO QD × 7", "result": 1.73}, {"measurement": "Pathological score, Total score, Damage", "setting": "[5]; mean, G3, 9 mg/kg PO QD × 7", "result": 4.00}, {"measurement": "Pathological score, Total score, Inflammation", "setting": "[5]; mean, G3, 9 mg/kg PO QD × 7", "result": 6.07}, {"measurement": "Pathological score, Ulcer end, Damage", "setting": "[5]; mean, G3, 9 mg/kg PO QD × 7", "result": 1.87}, {"measurement": "Pathological score, Ulcer end, Inflammation", "setting": "[5]; mean, G3, 9 mg/kg PO QD × 7", "result": 2.33}, {"measurement": "inflammatory cell infiltration score of colon ulcer end", "setting": "[5]; positive control drug", "result": "significantly reduce"}, {"measurement": "inhibition at 9 mg/kg", "setting": "[6]; G3, 9 mg/kg PO QD × 7, read-out: IR1 (inhibition rate 1, CW/CL/BW)", "result": 44.2, "unit": "%"}, {"measurement": "inhibition at 9 mg/kg", "setting": "[6]; G3, 9 mg/kg PO QD × 7, read-out: IR2 (inhibition rate 2, CW/BW)", "result": 50.1, "unit": "%"}, {"measurement": "inhibition at 9 mg/kg", "setting": "[6]; G3, 9 mg/kg PO QD × 7, read-out: IR3 (inhibition rate 3, CW/CL)", "result": 46.5, "unit": "%"}, {"measurement": "BW", "setting": "[6]; mean, G3, 9 mg/kg PO QD × 7", "result": 162.92, "unit": "g"}, {"measurement": "CW/BW ×100", "setting": "[6]; mean, G3, 9 mg/kg PO QD × 7", "result": 0.99}, {"measurement": "Ulcer area", "setting": "[6]; mean, G3, 9 mg/kg PO QD × 7", "result": 1.26, "unit": "cm^2"}, {"measurement": "Ulcer length", "setting": "[6]; mean, G3, 9 mg/kg PO QD × 7", "result": 0.77, "unit": "cm"}, {"measurement": "Ulcer width", "setting": "[6]; mean, G3, 9 mg/kg PO QD × 7", "result": 0.85, "unit": "cm"}, {"measurement": "colon weight", "setting": "[6]; positive control drug", "result": "significantly reduce"}, {"measurement": "stool form score AUC", "setting": "[7]", "result": "significantly reduce"}]}
